{"source": "patent US10377753B2", "about": "“Substituted 4-azaindoles and their use as GluN2B receptor modulators” (Janssen Pharmaceutica NV, priority 2015, dated 2019)"}
{"target": "cloned human NR1/NR2B ion channels (Homo sapiens (Human), UniProt Q05586+Q13224)", "sequence (Q13224 27-1484, other chains not shown)": "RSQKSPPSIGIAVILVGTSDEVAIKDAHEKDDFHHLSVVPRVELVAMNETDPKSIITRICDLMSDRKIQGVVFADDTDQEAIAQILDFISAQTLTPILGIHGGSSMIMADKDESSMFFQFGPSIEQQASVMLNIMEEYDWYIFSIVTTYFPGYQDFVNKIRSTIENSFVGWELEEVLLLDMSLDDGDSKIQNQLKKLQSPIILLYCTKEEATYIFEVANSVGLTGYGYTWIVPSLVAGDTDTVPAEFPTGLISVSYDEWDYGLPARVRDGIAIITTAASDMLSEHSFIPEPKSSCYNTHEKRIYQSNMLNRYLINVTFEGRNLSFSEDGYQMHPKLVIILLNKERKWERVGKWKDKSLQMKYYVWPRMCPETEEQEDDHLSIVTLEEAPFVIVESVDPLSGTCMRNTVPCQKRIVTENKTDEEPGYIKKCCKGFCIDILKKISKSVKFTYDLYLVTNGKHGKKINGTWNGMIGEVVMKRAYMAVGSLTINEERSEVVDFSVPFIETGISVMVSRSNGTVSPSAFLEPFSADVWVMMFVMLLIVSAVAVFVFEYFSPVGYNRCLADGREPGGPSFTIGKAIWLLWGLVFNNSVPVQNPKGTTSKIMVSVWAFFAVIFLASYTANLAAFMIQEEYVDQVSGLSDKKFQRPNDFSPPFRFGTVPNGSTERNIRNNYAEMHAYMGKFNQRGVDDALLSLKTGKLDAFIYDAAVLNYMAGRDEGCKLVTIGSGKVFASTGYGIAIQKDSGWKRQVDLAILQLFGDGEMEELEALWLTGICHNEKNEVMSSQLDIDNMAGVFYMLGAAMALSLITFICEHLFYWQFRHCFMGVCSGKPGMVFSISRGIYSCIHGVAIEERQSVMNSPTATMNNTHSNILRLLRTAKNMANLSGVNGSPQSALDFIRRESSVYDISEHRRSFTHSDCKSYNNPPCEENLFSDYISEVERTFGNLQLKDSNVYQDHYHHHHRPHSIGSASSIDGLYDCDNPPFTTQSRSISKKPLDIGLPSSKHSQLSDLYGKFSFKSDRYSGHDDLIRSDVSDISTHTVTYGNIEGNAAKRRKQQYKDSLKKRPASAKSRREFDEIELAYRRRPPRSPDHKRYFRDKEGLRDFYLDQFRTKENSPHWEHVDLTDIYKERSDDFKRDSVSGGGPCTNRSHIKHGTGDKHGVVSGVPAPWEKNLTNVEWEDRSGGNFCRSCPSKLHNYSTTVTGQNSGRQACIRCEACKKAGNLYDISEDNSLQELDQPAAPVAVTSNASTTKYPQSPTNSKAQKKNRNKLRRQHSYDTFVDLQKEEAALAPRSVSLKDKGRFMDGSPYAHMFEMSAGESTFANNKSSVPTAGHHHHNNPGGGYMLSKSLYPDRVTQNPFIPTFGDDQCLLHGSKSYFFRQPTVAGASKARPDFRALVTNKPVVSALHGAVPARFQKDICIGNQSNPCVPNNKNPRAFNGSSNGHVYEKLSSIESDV", "experiment": "HNR2BC: effects of test articles on cloned human NR1/NR2B ion channels expressed in mammalian cells (FLIPR calcium flux)", "assay_type": "cell-based", "conditions": "cloned human NR1/NR2B ion channels, Table 5", "method_in_brief": "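In a stable Tet-On-induced cell line expressing human GluN1/GluN2B, Calcium 5-loaded cells were preincubated 5 min with compound, then stimulated 5 min with glutamate at ~EC80 plus 10 μM glycine, in pH 7.4 HEPES buffer. FLIPR calcium fluorescence was normalized to control wells.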", "units": {"IC50": "nM"}}
{"smiles": "Cc1csc(-c2cnc3c(C)cn(CC(=O)N4CCC4)c3c2)c1", "note": "[Example 574, 1-(Azetidin-1-yl)-2-[3-methyl-6-(4-methyl-2-thienyl)pyrrolo[3,2-b]pyridin-1-yl]ethanone]", "IC50": 79.4}
{"smiles": "Cc1csc(-c2cnc3c(C)cn(CC(=O)N4CC(F)C4)c3c2)c1", "note": "[Example 575, 1-(3-Fluoroazetidin-1-yl)-2-[3-methyl-6-(4-methyl-2-thienyl)pyrrolo[3,2-b]pyridin-1-yl]ethanone]", "IC50": 79.4}
{"smiles": "Cc1cn(CC(=O)N(C)C)c2cc(-c3ccccc3)cnc12", "note": "[Example 576, N,N-Dimethyl-2-(3-methyl-6-phenyl-pyrrolo[3,2-b]pyridin-1-yl)acetamide]", "IC50": 100}
{"smiles": "CCN(C)C(=O)Cn1cc(C)c2ncc(-c3ccccc3)cc21", "note": "[Example 577, N-Ethyl-N-methyl-2-(3-methyl-6-phenyl-pyrrolo[3,2-b]pyridin-1-yl)acetamide]", "IC50": 200}
{"smiles": "Cc1cn(CC(=O)N2CC(F)C2)c2cc(-c3ccccc3)cnc12", "note": "[Example 578, 1-(3-Fluoroazetidin-1-yl)-2-(3-methyl-6-phenyl-pyrrolo[3,2-b]pyridin-1-yl)ethanone]", "IC50": 126}
{"smiles": "Cc1cn(CC(=O)N2CC(F)(F)C2)c2cc(-c3ccccc3)cnc12", "note": "[Example 579, 1-(3,3-Difluoroazetidin-1-yl)-2-(3-methyl-6-phenyl-pyrrolo[3,2-b]pyridin-1-yl)ethanone]", "IC50": 63.1}
{"smiles": "Cc1cc(-c2cnc3c(C)cn(CC(=O)N4CC(F)C4)c3c2)ccc1F", "note": "[Example 580, 1-(3-Fluoroazetidin-1-yl)-2-[6-(4-fluoro-3-methyl-phenyl)-3-methyl-pyrrolo[3,2-b]pyridin-1-yl]ethanone]", "IC50": 79.4}
{"smiles": "Cc1cccc(-c2cnc3c(C)cn(CC(=O)N4CCC4)c3c2)c1", "note": "[Example 581, 1-(Azetidin-1-yl)-2-[3-methyl-6-(m-tolyl)pyrrolo[3,2-b]pyridin-1-yl]ethanone]", "IC50": 79.4}
{"smiles": "Cc1cn(CC(=O)N2CCC2)c2cc(-c3ccc(F)c(F)c3F)cnc12", "note": "[Example 582, 1-(Azetidin-1-yl)-2-[3-methyl-6-(2,3,4-trifluorophenyl)pyrrolo[3,2-b]pyridin-1-yl]ethanone]", "IC50": 39.8}
{"smiles": "Cc1cn(CC(=O)N(C)C)c2cc(-c3ccc(F)c(F)c3F)cnc12", "note": "[Example 583, N,N-Dimethyl-2-[3-methyl-6-(2,3,4-trifluorophenyl)pyrrolo[3,2-b]pyridin-1-yl]acetamide]", "IC50": 126}
{"smiles": "CCN(C)C(=O)Cn1cc(C)c2ncc(-c3ccc(F)c(F)c3F)cc21", "note": "[Example 584, N-Ethyl-N-methyl-2-[3-methyl-6-(2,3,4-trifluorophenyl)pyrrolo[3,2-b]pyridin-1-yl]acetamide]", "IC50": 398}
{"smiles": "Cc1cn(CC(=O)N2CCC2)c2cc(-c3cccc(C(F)(F)F)c3F)cnc12", "note": "[Example 585, 1-(Azetidin-1-yl)-2-[6-[2-fluoro-3-(trifluoromethyl)phenyl]-3-methyl-pyrrolo[3,2-b]pyridin-1-yl]ethanone]", "IC50": 251}
{"smiles": "Cc1cn(CC(=O)N(C)C)c2cc(-c3cccc(C(F)(F)F)c3F)cnc12", "note": "[Example 586, 2-[6-[2-Fluoro-3-(trifluoromethyl)phenyl]-3-methyl-pyrrolo[3,2-b]pyridin-1-yl]-N,N-dimethyl-acetamide]", "IC50": 126}
{"smiles": "CCN(C)C(=O)Cn1cc(C)c2ncc(-c3cccc(C(F)(F)F)c3F)cc21", "note": "[Example 587, N-Ethyl-2-[6-[2-fluoro-3-(trifluoromethyl)phenyl]-3-methyl-pyrrolo[3,2-b]pyridin-1-yl]-N-methyl-acetamide]", "IC50": 251}
{"smiles": "Cc1cn(CC(=O)N2CC(F)C2)c2cc(-c3ccc(F)c(F)c3F)cnc12", "note": "[Example 588, 1-(3-Fluoroazetidin-1-yl)-2-[3-methyl-6-(2,3,4-trifluorophenyl)pyrrolo[3,2-b]pyridin-1-yl]ethanone]", "IC50": 631}
{"smiles": "Cc1cn(CC(=O)N2CC(F)C2)c2cc(-c3cccc(C(F)(F)F)c3F)cnc12", "note": "[Example 589, 1-(3-Fluoroazetidin-1-yl)-2-[6-[2-fluoro-3-(trifluoromethyl)phenyl]-3-methyl-pyrrolo[3,2-b]pyridin-1-yl]ethanone]", "IC50": 126}
